According to patent US7018659B2, “Anti-arrhythmic pharmaceutical composition and a process thereof” (Council of Scientific & Industrial Research, priority 2002, dated 2006):

Key:
[1] = system: male Wister albino rats; assay: Electrocardiograph studies (hypodynamic heart), aconitine-induced arrhythmia in anaesthetized rats; type: in vivo; settings: aconitine 50 μg/100 g infused through the jugular vein
Protocol: Electrocardiograph studies were conducted on urethane (1.75 g/kg, i.p) anaesthetized male Wister albino rats (150±10 g). Recordings were obtained in lead II. Aconitine (50 μg/100 g) was infused through the jugular vein and arrhythmia was induced within 30±5 mins.

[2] = system: isolated guineapig auricle; assay: Aconitine-induced arrhythmia in isolated guineapig auricle; settings: aconitine 15 ng/ml
Protocol: Isolated guineapig auricle was prepared after Burn J H (1952). Aconitine (15 ng/ml) when added, set up arrhythmia within (40±5) mins. This novel compound (5 ng/ml) could revert arrhythmia to normal within (45±4.2) mins. The normal functioning state was maintained, observed up to 6 hrs. Again, arrhythmia was set in isolated auricle with 2.25 mM CaCl2. Arrhythmia was reverted to normal with the novel compound (5 ng/ml) within (30±3.36) mins of observation.

CCN1C[C@]2(COC)[C@H](O)C[C@H](OC)[C@@]34[C@@H]5C[C@@]6(O)[C@H](OC(=O)c7ccccc7)[C@@H]5[C@@](OC(C)=O)([C@@H]([C@H](OC)[C@H]23)[C@@H]14)[C@@H](O)[C@@H]6OC [Aconitine]
time to induction of arrhythmia [1]: ≤ 30 ± 5 min | time to set up arrhythmia [2]: ≤ 40 ± 5 min
